Assay results: EP0414533A1, “Use of iodopropargyl esters of alpha-amino acid derivatives as antimicrobial agents” (ROHM AND HAAS COMPANY, priority 1989, dated 1991)
Like-named read-outs stand apart in the source and are kept apart here.

Legend:
Aspergillus niger (ANIG) = assay: Minimum inhibitory concentration (MIC), broth two-fold serial dilution test; assay type: cell-based; conditions: Aspergillus niger, IIIB, trypticase soy broth (complex media); Table IIIb; read-out: MIC (F) ANIG
[1] = test system: Aureobasidium pullulans (APUL); assay: as above; assay type: cell-based; conditions: Aureobasidium pullulans, IIIB, trypticase soy broth (complex media); Table IIIb; read-out: MIC (F) APUL
[2] = test system: MIXED COOLING TOWER ALGAE; assay: MIC test against mixed cooling tower algae; assay type: cell-based, green algae and blue-green bacteria; conditions: Table VIII
Description: The algae culture contains green algae and blue-green bacteria, and is obtained from a cooling tower in Spring House, Pennsylvania. The algae culture is grown in Allen's medium on a rotary shaker under flourescent room lighting. This culture is further diluted with Allen's medium and then added to the test vessel.

8 FUNGI = assay: Microbicides secondary test against 8 fungi on Mycophile Agar at pH 5.0 (Table VI); assay type: cell-based; parameters: key: 1= no growth; 0= growth of the indicated fungi at dose indicated in ppm; conditions: for ANIG growth: Aspergillus niger; for APUL growth: Aureobasidium pullulans; for CGLO growth: Chaetomium globosum; for CRES growth: Cladosporium resinae; for GTRA growth: Gloeophyllum trabeum; for PFUN growth: Penicillium funiculosum; for RRUB growth: Rhodotorula rubra; for SSER growth: Sacharomyces cerevisiae
Description: The results of the minimum inhibitory concentration (MIC) tests of compounds of this invention are shown in Tables IIIa IIIb, IIIc, V, VI, VII, and VIII against the microorganisms shown in Table IX.

THREE FUNGI = assay: MIC test against three fungi in Mycophile Broth, pH 5.0, read after 8 days (Table VII); assay type: cell-based; conditions: 192 h, serial dilutions from 50 ppm, read after 8 days of incubation
[3] = test system: Pseudomonas fluorescens (PSFL); assay: Minimum inhibitory concentration (MIC), broth two-fold serial dilution test; conditions: Pseudomonas fluorescens, IIIB, read-out: MIC (G-) PSFL, trypticase soy broth (complex media); Table IIIb
Description: When the test is ready to be done, each vessel in the dilution series, except the first vessel, contains an equal volume of compound free broth. The first vessel contains twice the volume of broth with the starting concentration of test compound. One half of the broth from the first vessel is transferred to the second vessel. After being mixed, one half the resulting volume is removed from the second vessel and transferred to the third vessel. The entire cycle is repeated sufficiently to give a series of concentrations amounting to 500, 250, 125, 63, 31, 16, 8, and 4 ppm (or 100, 50, 25, 12.5, 6.2, 3.1, 1.6, and 0.8), respectively.
Each vessel is then inoculated with a cell suspension of the appropriate test organism. Bacteria are grown in broth, fungi on agar slants for a time and at a temperature appropriate to the species being tested, and algae are a mixture of green algae and blue-green bacteria grown in a nutrient media. At the end of the growth period, in the case of bacteria, the broth is vortexed to disperse the cells.
The vessels are then incubated at the appropriate temperature. After the incubation, the vessels are examined for growth/no growth.

[4] = test system: Pseudomonas aerugenosa (PSAE); assay: as above; conditions: Pseudomonas, IIIB, read-out: MIC (G-) PSAE, trypticase soy broth (complex media); Table IIIb
Escherichia coli (ECOL) = assay: as above; conditions: Escherichia coli, IIIB, read-out: MIC (G-) ECOL, trypticase soy broth (complex media); Table IIIb
[5] = test system: Staphylococcus aureus (SAUR); assay: as above; conditions: Staphylococcus aureus, IIIB, read-out: MIC (G+) SAUR, trypticase soy broth (complex media); Table IIIb
[6] = Aspergillus niger, read-out: MIC ANIG
[7] = Aureobasidium pullulans, read-out: MIC APUL
[8] = Gloeophyllum trabeum, read-out: MIC GTRA

O=CNCC(=O)OCC#CI [Compound 32, N-formylglycine iodopropargyl ester]
0: ANIG growth (8 FUNGI; 0.2 PPM) | ANIG growth (8 FUNGI; 1.0 PPM) | ANIG growth (8 FUNGI; 2.5 PPM) | APUL growth (8 FUNGI; 0.2 PPM) | APUL growth (8 FUNGI; 1.0 PPM) | APUL growth (8 FUNGI; 2.5 PPM) | CGLO growth (8 FUNGI; 0.2 PPM) | CGLO growth (8 FUNGI; 1.0 PPM) | CGLO growth (8 FUNGI; 2.5 PPM) | CRES growth (8 FUNGI; 0.2 PPM) | CRES growth (8 FUNGI; 1.0 PPM) | CRES growth (8 FUNGI; 2.5 PPM) | GTRA growth (8 FUNGI; 0.2 PPM) | GTRA growth (8 FUNGI; 1.0 PPM) | GTRA growth (8 FUNGI; 2.5 PPM) | PFUN growth (8 FUNGI; 0.2 PPM) | PFUN growth (8 FUNGI; 1.0 PPM) | PFUN growth (8 FUNGI; 2.5 PPM) | RRUB growth (8 FUNGI; 0.2 PPM) | RRUB growth (8 FUNGI; 1.0 PPM) | RRUB growth (8 FUNGI; 2.5 PPM) | SSER growth (8 FUNGI; 0.2 PPM) | SSER growth (8 FUNGI; 1.0 PPM) | SSER growth (8 FUNGI; 2.5 PPM)
2 µg/mL: MIC (Aspergillus niger (ANIG))
25 µg/mL: MIC (THREE FUNGI; [7])
8 µg/mL: MIC [1]
6.2 µg/mL: MIC [2]
12.5 µg/mL: MIC (THREE FUNGI; [6])
3.2 µg/mL: MIC (THREE FUNGI; [8])
63 µg/mL: MIC [4] | MIC (Escherichia coli (ECOL)) | MIC [5]
1: ANIG growth (8 FUNGI; 25 PPM) | APUL growth (8 FUNGI; 25 PPM) | CGLO growth (8 FUNGI; 25 PPM) | CRES growth (8 FUNGI; 25 PPM) | GTRA growth (8 FUNGI; 25 PPM) | PFUN growth (8 FUNGI; 25 PPM) | RRUB growth (8 FUNGI; 25 PPM) | SSER growth (8 FUNGI; 25 PPM)
32 µg/mL: MIC [3]

C/C=C/C=C/C(=O)NCC(=O)OCC#CI [Compound 35, N-sorbylglycine iodopropargyl ester]
0.4 µg/mL: MIC (THREE FUNGI; [8])
2 µg/mL: MIC (Aspergillus niger (ANIG))
6.2 µg/mL: MIC [2] | MIC (THREE FUNGI; [7])
125 µg/mL: MIC [4] | MIC (Escherichia coli (ECOL))
1: ANIG growth (8 FUNGI; 1.0 PPM) | ANIG growth (8 FUNGI; 2.5 PPM) | ANIG growth (8 FUNGI; 25 PPM) | APUL growth (8 FUNGI; 25 PPM) | CGLO growth (8 FUNGI; 1.0 PPM) | CGLO growth (8 FUNGI; 2.5 PPM) | CGLO growth (8 FUNGI; 25 PPM) | CRES growth (8 FUNGI; 25 PPM) | GTRA growth (8 FUNGI; 1.0 PPM) | GTRA growth (8 FUNGI; 2.5 PPM) | GTRA growth (8 FUNGI; 25 PPM) | PFUN growth (8 FUNGI; 2.5 PPM) | PFUN growth (8 FUNGI; 25 PPM) | RRUB growth (8 FUNGI; 2.5 PPM) | RRUB growth (8 FUNGI; 25 PPM) | SSER growth (8 FUNGI; 25 PPM)
0: ANIG growth (8 FUNGI; 0.2 PPM) | APUL growth (8 FUNGI; 0.2 PPM) | APUL growth (8 FUNGI; 1.0 PPM) | APUL growth (8 FUNGI; 2.5 PPM) | CGLO growth (8 FUNGI; 0.2 PPM) | CRES growth (8 FUNGI; 0.2 PPM) | CRES growth (8 FUNGI; 1.0 PPM) | CRES growth (8 FUNGI; 2.5 PPM) | GTRA growth (8 FUNGI; 0.2 PPM) | PFUN growth (8 FUNGI; 0.2 PPM) | PFUN growth (8 FUNGI; 1.0 PPM) | RRUB growth (8 FUNGI; 0.2 PPM) | RRUB growth (8 FUNGI; 1.0 PPM) | SSER growth (8 FUNGI; 0.2 PPM) | SSER growth (8 FUNGI; 1.0 PPM) | SSER growth (8 FUNGI; 2.5 PPM)
1.6 µg/mL: MIC (THREE FUNGI; [6])
4 µg/mL: MIC [1]
63 µg/mL: MIC [3] | MIC [5]

CCCCCCCC(=O)NCC(=O)OCC#CI [Compound 34, N-octanoylglycine iodopropargyl ester]
8 µg/mL: MIC [1]
> 250 µg/mL: MIC (Escherichia coli (ECOL))
12.5 µg/mL: MIC [2] | MIC (THREE FUNGI; [7])
1.6 µg/mL: MIC (THREE FUNGI; [6])
0: ANIG growth (8 FUNGI; 0.2 PPM) | APUL growth (8 FUNGI; 0.2 PPM) | APUL growth (8 FUNGI; 1.0 PPM) | APUL growth (8 FUNGI; 2.5 PPM) | CGLO growth (8 FUNGI; 0.2 PPM) | CGLO growth (8 FUNGI; 2.5 PPM) | CRES growth (8 FUNGI; 0.2 PPM) | CRES growth (8 FUNGI; 1.0 PPM) | CRES growth (8 FUNGI; 2.5 PPM) | GTRA growth (8 FUNGI; 0.2 PPM) | PFUN growth (8 FUNGI; 0.2 PPM) | PFUN growth (8 FUNGI; 1.0 PPM) | RRUB growth (8 FUNGI; 0.2 PPM) | RRUB growth (8 FUNGI; 1.0 PPM) | RRUB growth (8 FUNGI; 2.5 PPM) | SSER growth (8 FUNGI; 0.2 PPM) | SSER growth (8 FUNGI; 1.0 PPM) | SSER growth (8 FUNGI; 2.5 PPM)
250 µg/mL: MIC [5]
63 µg/mL: MIC [3]
1: ANIG growth (8 FUNGI; 1.0 PPM) | ANIG growth (8 FUNGI; 2.5 PPM) | ANIG growth (8 FUNGI; 25 PPM) | APUL growth (8 FUNGI; 25 PPM) | CGLO growth (8 FUNGI; 1.0 PPM) | CGLO growth (8 FUNGI; 25 PPM) | CRES growth (8 FUNGI; 25 PPM) | GTRA growth (8 FUNGI; 1.0 PPM) | GTRA growth (8 FUNGI; 2.5 PPM) | GTRA growth (8 FUNGI; 25 PPM) | PFUN growth (8 FUNGI; 2.5 PPM) | PFUN growth (8 FUNGI; 25 PPM) | RRUB growth (8 FUNGI; 25 PPM) | SSER growth (8 FUNGI; 25 PPM)
125 µg/mL: MIC [4]
3.2 µg/mL: MIC (THREE FUNGI; [8])
< 0.12 µg/mL: MIC (Aspergillus niger (ANIG))
